# Test results reported in patent US20220281821A1, “INDAZOLE COMPOUNDS AND THEIR PHARMACEUTICAL COMPOSITIONS” (Jinan University, priority 2019, published 2022).
# Columns and labels:
# BaF3-ETV6-NTRK2 = molecular target: T1, BaF3-ETV6-NTRK2 (Homo sapiens, UniProt Q16620); assay: Cell proliferation inhibition (CCK-8), BaF3-ETV6-NTRK2 stable strain; type: cell-based, mouse; conditions: BaF3-ETV6-NTRK2, 72 hours
# T1 construct: fused on or other part: P41212 (Transcription factor ETV6)
# Method: (§1) The brief steps of stable strain construction are as follows: construct a pCDNA3.1(+) plasmid vector carrying genes such as CD74-NTRK1, ETV6-NTRK2 and ETV6-NTRK3; the plasmid was electroporated into Ba/F3 cells using the Amaxa® Cell Line Nucleofector® Kit V; 48 hours after electroporated, G418 with a final concentration of 1000 μg/ml was added for screening for two weeks, and then IL3 was removed, and continued screening to obtain polyclonal stable strains; then single clones were selected by a limiting dilution method. The stable strains were then identified using positive drugs, WB and gene sequencing; and the monoclonal clones that were identified as completely correct may be used for the study of cell proliferation inhibitory activity of inhibitors.
# (§2) Cell proliferation inhibition activity study: the cells in the logarithmic growth phase were seeded into 96-well plates at 8000-12000 cells/well, and inhibitors at different concentrations (0-10 μM) were added the next day, and incubation was continued for 72 hours; then 10 μL of CCK-8 reagent was added to each well, and the incubation was continued for 1-3 hours; and then use a super microplate reader to measure their absorbance values at 450 nm and 650 nm. The half-inhibition concentration (IC50) was calculated using GraphPad Prism 8.0.0.
# BaF3-CD74-NTRK1 = molecular target: T2, BaF3-CD74-NTRK1 (Homo sapiens, UniProt P04629); assay: Cell proliferation inhibition (CCK-8), BaF3-CD74-NTRK1 stable strain; type: cell-based, mouse; conditions: BaF3-CD74-NTRK1, 72 hours
# T2 construct: fused on or other part: P04233 (HLA class II histocompatibility antigen gamma chain)
# Method: as §1, §2
# TRKA = molecular target: T3, TRKA (Homo sapiens, UniProt P04629); assay: Z′-LYTE kinase activity assay, TRKA; type: biochemical; conditions: ATP 400 uM
# T3 construct: purchased life technologies PV3144
# Description: (§3) Kinase activity assay: Z′-LYTE™ technology (detection by fluorescence, enzyme-conjugated format, based on the difference in sensitivity of phosphorylated and non-phosphorylated peptides to proteolytic cleavage) was applied, and using the principle of fluorescence resonance energy transfer (FRET), a Z′-LYTE™ FRET peptide substrate (Z′-LYTE™ Tyrosine 1 Peptide Substrate, Invitrogen, PV3190), and a secondary reaction were used to detect the inhibitory activity of the compounds on TRKs (TRK1, TRK2, TRK3) (life technologies, PV3144, PV3616, PV3617).
# (§4) Enzymatic reaction: In a 384-well plate, 5 μL of an enzyme-substrate system (50 mM HEPES pH 7.5, 0.01% BRIJ-35, 10 mM MgCl2, 1 mM EGTA, 2 μM Tyr 01 Peptide Substrate) was added and 5 nL of compound (concentration gradient) was transferred thereto by using the echo520 ultramicro liquid pipetting system. […] After shaking and mixing, centrifuging was performed. A reaction was carried out at 30° C. in the dark for 1.5 hours.
# (§5) The data were analyzed as follows:
# (§6) Phosphorylation ratio=1−{(emission ratio×F100%−C100%)/[C0%−C100%+emission ratio×(F100%−F0%)]}×100;
# (§7) Inhibition rate=100×(1−compound phosphorylation ratio/negative control phosphorylation ratio).
# (§8) IC50 values were calculated by using GraphPad Prism 5.0 software.
# TRKC = molecular target: T4, TRKC (Homo sapiens, UniProt Q16288); assay: Z′-LYTE kinase activity assay, TRKC; type: biochemical; conditions: ATP 50 uM
# T4 construct: purchased life technologies PV3617
# Description: as §3, §4, §5, §8
# TRKB = molecular target: T5, TRKB (Homo sapiens, UniProt Q16620); assay: Z′-LYTE kinase activity assay, TRKB; type: biochemical; conditions: ATP 25 uM
# T5 construct: purchased life technologies PV3616
# Description: as §3, §4, §5, §6, §7, §8
# BaF3-ETV6-NTRK3 = molecular target: T6, BaF3-ETV6-NTRK3 (Homo sapiens, UniProt Q16288); assay: Cell proliferation inhibition (CCK-8), BaF3-ETV6-NTRK3 stable strain; type: cell-based, mouse; conditions: BaF3-ETV6-NTRK3, 72 hours
# T6 construct: fused on or other part: P41212 (Transcription factor ETV6)
# Method: as §1, §2
# T6 sequence (Q16288 whole entry, the tested form may be a part): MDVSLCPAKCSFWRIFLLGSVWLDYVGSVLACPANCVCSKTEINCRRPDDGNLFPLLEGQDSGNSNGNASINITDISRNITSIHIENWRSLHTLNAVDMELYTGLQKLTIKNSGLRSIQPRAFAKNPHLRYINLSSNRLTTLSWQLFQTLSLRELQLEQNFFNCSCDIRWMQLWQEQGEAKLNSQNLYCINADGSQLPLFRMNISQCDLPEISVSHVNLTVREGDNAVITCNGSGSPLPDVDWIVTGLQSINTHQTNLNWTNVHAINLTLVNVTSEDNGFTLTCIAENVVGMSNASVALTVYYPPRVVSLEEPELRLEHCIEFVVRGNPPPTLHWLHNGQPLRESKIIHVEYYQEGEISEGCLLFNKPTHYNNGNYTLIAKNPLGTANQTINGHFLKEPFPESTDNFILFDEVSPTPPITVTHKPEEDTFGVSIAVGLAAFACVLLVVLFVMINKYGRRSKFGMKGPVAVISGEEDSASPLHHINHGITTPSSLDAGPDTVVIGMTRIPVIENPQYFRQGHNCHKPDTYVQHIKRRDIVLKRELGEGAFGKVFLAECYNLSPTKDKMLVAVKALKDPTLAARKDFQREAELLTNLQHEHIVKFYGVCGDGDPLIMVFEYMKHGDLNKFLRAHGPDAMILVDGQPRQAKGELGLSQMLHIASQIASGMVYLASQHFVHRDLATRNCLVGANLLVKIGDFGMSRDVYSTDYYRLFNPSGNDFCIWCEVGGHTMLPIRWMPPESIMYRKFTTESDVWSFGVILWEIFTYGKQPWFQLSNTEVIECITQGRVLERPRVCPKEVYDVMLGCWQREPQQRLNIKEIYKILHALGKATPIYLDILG
# T1 sequence (Q16620 538-822 limits assumed): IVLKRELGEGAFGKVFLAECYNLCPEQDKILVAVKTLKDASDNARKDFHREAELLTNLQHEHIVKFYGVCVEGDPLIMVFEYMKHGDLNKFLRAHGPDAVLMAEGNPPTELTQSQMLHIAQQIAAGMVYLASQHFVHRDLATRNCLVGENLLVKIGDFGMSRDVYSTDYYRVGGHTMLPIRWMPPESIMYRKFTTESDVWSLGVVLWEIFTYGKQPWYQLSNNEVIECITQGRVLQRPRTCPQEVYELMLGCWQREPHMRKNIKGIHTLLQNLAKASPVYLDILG
# T2 sequence (P04629 510-796 limits assumed): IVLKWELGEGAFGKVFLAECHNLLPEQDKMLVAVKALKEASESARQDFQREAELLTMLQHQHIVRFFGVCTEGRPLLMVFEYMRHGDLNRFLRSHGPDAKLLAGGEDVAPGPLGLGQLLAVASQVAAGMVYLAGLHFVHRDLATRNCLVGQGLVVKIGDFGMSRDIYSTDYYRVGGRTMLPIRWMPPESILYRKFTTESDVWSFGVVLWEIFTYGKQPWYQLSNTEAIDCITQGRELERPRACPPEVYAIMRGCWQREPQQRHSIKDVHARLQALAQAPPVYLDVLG
# T4 sequence (Q16288 32-839): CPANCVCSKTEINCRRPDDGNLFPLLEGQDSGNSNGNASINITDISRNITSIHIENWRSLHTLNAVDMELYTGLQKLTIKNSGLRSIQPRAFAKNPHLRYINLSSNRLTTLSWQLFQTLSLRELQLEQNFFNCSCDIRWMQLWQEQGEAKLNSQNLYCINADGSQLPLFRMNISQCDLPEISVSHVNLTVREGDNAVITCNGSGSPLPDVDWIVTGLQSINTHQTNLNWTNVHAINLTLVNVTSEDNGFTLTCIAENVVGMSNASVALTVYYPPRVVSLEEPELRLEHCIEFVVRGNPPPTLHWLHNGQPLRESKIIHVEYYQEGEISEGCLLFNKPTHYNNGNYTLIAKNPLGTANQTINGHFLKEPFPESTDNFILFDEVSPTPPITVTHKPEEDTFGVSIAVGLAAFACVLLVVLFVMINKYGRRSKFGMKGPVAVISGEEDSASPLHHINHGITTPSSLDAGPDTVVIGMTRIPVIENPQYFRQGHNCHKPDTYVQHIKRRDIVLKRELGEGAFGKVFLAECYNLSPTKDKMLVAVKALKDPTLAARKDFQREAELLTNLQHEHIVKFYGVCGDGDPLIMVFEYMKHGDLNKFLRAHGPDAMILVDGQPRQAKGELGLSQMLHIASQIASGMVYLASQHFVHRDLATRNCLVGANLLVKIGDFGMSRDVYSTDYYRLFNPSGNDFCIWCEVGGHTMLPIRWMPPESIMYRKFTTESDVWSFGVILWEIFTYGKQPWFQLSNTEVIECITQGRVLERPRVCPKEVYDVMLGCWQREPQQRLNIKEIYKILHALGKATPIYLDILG
# T3 sequence (P04629 440-796 limits assumed): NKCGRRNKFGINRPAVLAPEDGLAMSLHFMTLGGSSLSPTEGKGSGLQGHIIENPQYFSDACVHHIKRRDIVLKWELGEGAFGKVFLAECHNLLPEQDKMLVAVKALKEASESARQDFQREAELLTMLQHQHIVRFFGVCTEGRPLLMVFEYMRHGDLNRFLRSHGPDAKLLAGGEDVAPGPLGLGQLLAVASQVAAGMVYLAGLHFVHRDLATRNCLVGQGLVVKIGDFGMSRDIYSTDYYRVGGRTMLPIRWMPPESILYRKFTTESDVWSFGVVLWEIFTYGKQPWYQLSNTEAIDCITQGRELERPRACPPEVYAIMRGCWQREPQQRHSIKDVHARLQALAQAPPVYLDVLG
# T5 sequence (Q16620 32-822): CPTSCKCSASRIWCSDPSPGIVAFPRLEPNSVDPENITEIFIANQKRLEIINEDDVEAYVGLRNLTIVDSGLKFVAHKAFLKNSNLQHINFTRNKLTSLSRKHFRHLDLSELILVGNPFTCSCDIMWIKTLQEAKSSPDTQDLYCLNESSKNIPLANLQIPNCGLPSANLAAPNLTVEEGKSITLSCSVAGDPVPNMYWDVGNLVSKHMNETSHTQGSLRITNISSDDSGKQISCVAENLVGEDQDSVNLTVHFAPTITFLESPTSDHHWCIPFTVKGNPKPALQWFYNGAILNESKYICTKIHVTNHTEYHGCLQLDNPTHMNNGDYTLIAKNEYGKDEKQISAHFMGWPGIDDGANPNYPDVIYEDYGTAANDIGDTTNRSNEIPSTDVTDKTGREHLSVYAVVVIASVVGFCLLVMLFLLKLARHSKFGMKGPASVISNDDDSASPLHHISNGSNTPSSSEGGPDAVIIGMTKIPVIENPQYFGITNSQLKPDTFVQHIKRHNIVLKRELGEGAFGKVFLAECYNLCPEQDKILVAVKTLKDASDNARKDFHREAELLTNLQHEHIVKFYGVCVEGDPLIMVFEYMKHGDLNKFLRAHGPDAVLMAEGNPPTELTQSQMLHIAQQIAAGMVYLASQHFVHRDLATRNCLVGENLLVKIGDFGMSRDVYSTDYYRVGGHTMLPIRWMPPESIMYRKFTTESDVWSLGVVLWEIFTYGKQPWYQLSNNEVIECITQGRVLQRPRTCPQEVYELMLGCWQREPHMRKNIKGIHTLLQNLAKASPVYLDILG
IC50 (BaF3-ETV6-NTRK2) [nM],IC50 (BaF3-CD74-NTRK1) [nM],IC50 (TRKA) [nM],IC50 (TRKC) [nM],IC50 (TRKB) [nM],IC50 (BaF3-ETV6-NTRK3) [nM],Structure (SMILES)
1970,820,34,11.8,83.8,477,"Fc1cc(F)cc(Cc2ccc3[nH]nc(C#Cc4ccccn4)c3c2)c1 [CCB-484, 5-(3,5-difluorobenzyl)-3-(pyridin-2-ylethynyl)-1H-indazole]"
728,174,21.8,5.1,32.4,240,"Fc1cc(F)cc(Cc2ccc3[nH]nc(/C=C/c4cccs4)c3c2)c1 [DYX-04, (E)-5-(3,5-difluorobenzyl)-3-(2-(thiophen-2-yl)vinyl)-1H-indazole]"
678,580,1.6,6,10.9,419,"Fc1cc(F)cc(Cc2ccc3[nH]nc(/C=C/c4cnccn4)c3c2)c1 [DYX-05, (E)-5-(3,5-difluorobenzyl)-3-(2-(pyrazin-2-yl)vinyl)-1H-indazole]"
968,211,10.6,104,40.3,284,"Fc1cc(F)cc(Cc2ccc3[nH]nc(/C=C/c4ccccc4)c3c2)c1 [DYX-07, (E)-5-(3,5-difluorobenzyl)-3-styryl-1H-indazole]"
777,630,9.2,18.8,3.2,394,"Fc1cc(F)cc(Cc2ccc3[nH]nc(/C=C/c4ccccc4F)c3c2)c1 [DYX-10, (E)-5-(3,5-difluorobenzyl)-3-(2-fluorostyryl)-1H-indazole]"
2340,1920,14.5,12,56.1,718,"Fc1ccccc1Cc1ccc2[nH]nc(/C=C/c3ccccn3)c2c1 [DYX-032, (E)-5-(2-fluorobenzyl)-3-(2-(pyridin-2-yl)vinyl)-1H-indazole]"
> 10000,8710,251,114,281,8380,"Fc1ccc(Cc2ccc3[nH]nc(/C=C/c4ccccn4)c3c2)cc1 [DYX-042, (E)-5-(4-fluorobenzyl)-3-(2-(pyridin-2-yl)vinyl)-1H-indazole]"
> 10000,> 10000,501,652,> 1000,> 10000,"Fc1ccc(Cc2ccc3[nH]nc(C#Cc4ccccn4)c3c2)cc1F [DYX-044, 5-(3,4-difluorobenzyl)-3-(pyridin-2-ylethynyl)-1H-indazole]"
168,803,33.2,9.7,15.3,959,"C(=C\c1n[nH]c2ccc(Cc3ccccc3)cc12)/c1ccccn1 [DYX-048, (E)-5-benzyl-3-(2-(pyridin-2-yl)vinyl)-1H-indazole]"
2620,,,226,353,2270,"Fc1cc(F)cc(Nc2ccc3[nH]nc(/C=C/c4ccccn4)c3c2)c1 [DYX-105, (E)-N-(3,5-difluorophenyl)-3-(2-(pyridin-2-yl)vinyl)-1H-indazol-5-amine]"

# Further lines, the compound ahead of its results:
Structure (SMILES),IC50 (BaF3-ETV6-NTRK2) [nM],IC50 (BaF3-CD74-NTRK1) [nM],IC50 (TRKA) [nM],IC50 (TRKC) [nM],IC50 (TRKB) [nM],IC50 (BaF3-ETV6-NTRK3) [nM]
"Fc1cc(F)cc(Cc2ccc3[nH]nc(/C=C/c4ccccn4)c3c2)c1 [CCB-489, (E)-5-(3,5-difluorobenzyl)-3-(2-(pyridin-2-yl)vinyl)-1H-indazole]",165,146,4.6,2.7,14.4,56.2
"Fc1cc(F)cc(Cc2ccc3[nH]nc(/C=C/c4cccnc4)c3c2)c1 [DYX-03, (E)-5-(3,5-difluorobenzyl)-3-(2-(pyridin-3-yl)vinyl)-1H-indazole]",157,126,4,8.6,10.9,75.2
"Fc1cc(F)cc(Cc2ccc3[nH]nc(/C=C/c4ccc5ccccc5n4)c3c2)c1 [DYX-06, (E)-2-(2-(5-(3,5-difluorobenzyl)-1H-indazol-3-yl)vinyl)quinoline]",723,640,14.1,77.4,87.1,492
"Cc1cccc(/C=C/c2n[nH]c3ccc(Cc4cc(F)cc(F)c4)cc23)n1 [DYX-09, (E)-5-(3,5-difluorobenzyl)-3-(2-(6-methylpyridin-2-yl)vinyl)-1H-indazole]",98.4,69,10.6,4.2,14.8,168
"C(#Cc1n[nH]c2ccc(Cc3ccccc3)cc12)c1ccccn1 [DYX-014, 5-benzyl-3-(pyridin-2-ylethynyl)-1H-indazole]",4700,8310,100,95,321,3030
"Fc1ccccc1Cc1ccc2[nH]nc(C#Cc3ccccn3)c2c1 [DYX-021, 5-(2-fluorobenzyl)-3-(pyridin-2-ylethynyl)-1H-indazole]",3090,4930,110,79,360,2600
"Fc1cccc(Cc2ccc3[nH]nc(C#Cc4ccccn4)c3c2)c1 [DYX-025, 5-(3-fluorobenzyl)-3-(pyridin-2-ylethynyl)-1H-indazole]",2560,2330,26,12,82,917
"Fc1ccc(Cc2ccc3[nH]nc(C#Cc4ccccn4)c3c2)cc1 [DYX-027, 5-(4-fluorobenzyl)-3-(pyridin-2-ylethynyl)-1H-indazole]",> 10000,> 10000,> 1000,> 1000,> 1000,> 10000
"Fc1cccc(Cc2ccc3[nH]nc(/C=C/c4ccccn4)c3c2)c1 [DYX-038, (E)-5-(3-fluorobenzyl)-3-(2-(pyridin-2-yl)vinyl)-1H-indazole]",335,239,9.3,1.9,32.4,133
"Fc1ccc(F)c(Cc2ccc3[nH]nc(C#Cc4ccccn4)c3c2)c1 [DYX-041, 5-(2,5-difluorobenzyl)-3-(pyridin-2-ylethynyl)-1H-indazole]",1990,724,44,8,40,796
"Fc1ccc(Cc2ccc3[nH]nc(C#Cc4ccccn4)c3c2)c(F)c1 [DYX-051, 5-(2,4-difluorobenzyl)-3-(pyridin-2-ylethynyl)-1H-indazole]",> 10000,> 10000,> 1000,> 1000,> 1000,> 10000
"Fc1ccc(F)c(Cc2ccc3[nH]nc(/C=C/c4ccccn4)c3c2)c1 [DYX-054, (E)-5-(2,5-difluorobenzyl)-3-(2-(pyridin-2-yl)vinyl)-1H-indazole]",329,546,7.1,5.4,12.2,145
"Fc1cc(F)cc(C#Cc2ccc3[nH]nc(/C=C/c4ccccn4)c3c2)c1 [DYX-183, (E)-5-((3,5-difluorophenyl)ethynyl)-3-(2-(pyridin-2-yl)vinyl)-1H-indazole]",> 10000,> 10000,598,,> 1000,> 10000
"O=S(=O)(c1cc(F)cc(F)c1)c1ccc2[nH]nc(/C=C/c3ccccc3F)c2c1 [Example E01F10, (E)-5-((3,5-difluorophenyl)sulfonyl)-3-(2-fluorostyryl)-1H-indazole]",610,68.9,,,,156
